According to ChEMBL document CHEMBL6092203, “Discovery of Novel PROTAC-Based HPK1 Degraders with High Potency and Selectivity for Cancer Immunotherapy” (J Med Chem, 2024):
Calls of active or inactive are those of the source. No cut-off for these calls is given here.

Key:
in vivo [1] = details: male, Sprague-Dawley, rat, po, 2 mg/kg
[2] = biological target: T1, Protein cereblon/Mitogen-activated protein kinase kinase kinase kinase 1 (Homo sapiens, UniProt Q92918+Q96SW2); test: PROTAC activity at CRBN/HPK1 in human Jurkat cells assessed as HPK1 degradation at 1 uM after 4 hrs by Western blotting analysis; assay type: cell-based
[3] = Drug distribution in rat gastrointestinal tract measured after 0.5 to 6 hrs; assay type: ADME, tissue-based; details: in vivo, time 0.5-6 hrs
[4] = Apparent volume of distribution in mouse at 2 mg/kg, iv measured upto 24 hrs by LC-MS analysis; assay type: ADME, organism-based; details: in vivo
in vitro [5] = details: dog, hepatocytes
MC-38 [6] = test: Synergistic antitumor activity against mouse MC38 cells implanted in C57BL/6J mouse assessed as tumor growth inhibition at 0.5 mg/kg, po bid measured after 4 weeks in presence of 5 mg/kg anti-PD1 and measured twice a week; assay type: functional; details: MC-38, 672 h, read-out: TGI
[7] = In vivo induction of phosphorylated SLP-76 degradation in C57BL/6J mouse spleen at 0.5 mg/kg administered as single dose and measured after 12 hrs; assay type: functional
MC-38 [8] = test: Antitumor activity against mouse MC38 cells implanted in C57BL/6J mouse assessed as reduction in tumor volume at 1 mg/kg, po BID administered for 3 to 4 weeks (reference value: 1549.22 +/- 217.92 mm3); assay type: functional; details: time 3-4 weeks
[9] = Drug metabolism in mouse hepatocytes assessed as phase 1 metabolites formation at 10 uM incubated for 120 mins by UHPLC-UV/MS/MS method; assay type: ADME, cell-based, Hepatocyte; details: 2 h
[10] = Metabolic stability in rat hepatocytes assessed as intrinsic clearance at 1 uM incubated for 90 mins by LC-MS/MS method; assay type: ADME, cell-based, Hepatocyte; details: 1.5 h
[11] = Plasma protein binding in mouse at 10 uM incubated for 6 hrs by equilibrium dialysis based LC-MS/MS method; assay type: ADME, cell-free; details: read-out: PPB (converted)
[12] = Tmax in female Sprague-Dawley rat at 30 mg/kg/day, po measured at day 14; assay type: ADME, organism-based; details: in vivo, time 14 day
MC-38 [13] = test: Antitumor activity against mouse MC38 cells implanted in C57BL/6J mouse assessed as tumor weight inhibition rate at 0.1 mg/kg, po BID measured after 4 weeks; assay type: functional; design: scale not given: the % may be the effect or the level left
[14] = AUCinfinity in Sprague-Dawley rat at 2 mg/kg, iv measured upto 24 hrs by LC-MS analysis; assay type: ADME, organism-based; details: in vivo
[15] = Plasma protein binding in monkey at 10 uM incubated for 6 hrs by equilibrium dialysis based LC-MS/MS method; assay type: ADME, cell-free, Macaca mulatta; details: rhesus monkey, read-out: PPB (converted)
MC-38 [16] = test: Synergistic antitumor activity against mouse MC38 cells implanted in C57BL/6J mouse assessed as reduction in tumor weight at 1 mg/kg, po bid administered for 3 to 4 weeks in presence of 5 mg/kg anti-PD1 and measured twice a week (reference value: 1.79 +/- 0.24 g); assay type: functional; details: time 3-4 weeks
[17] = Volume of distribution at steady state in Sprague-Dawley rat at 2 mg/kg, iv measured upto 24 hrs by LC-MS analysis; assay type: ADME, organism-based; details: in vivo, read-out: Vdss
[18] = Tmax in male Sprague-Dawley rat at 100 mg/kg/day, po measured at day 1; assay type: ADME, organism-based; details: in vivo, time 1 day
in vivo [19] = details: C57BL/6J, mouse, po, 10 mg/kg
[20] = Metabolic stability in dog liver microsomes assessed as intrinsic clearance at 1 uM incubated for 45 mins by LC-MS/MS method; assay type: ADME, Canis lupus familiaris, Microsome; details: read-out: CLH
in vivo [21] = details: female, Sprague-Dawley, rat, po, 2 mg/kg
[22] = Half-life in Beagle dog at 1 mg/kg, iv measured upto 24 hrs by LC-MS analysis; details: in vivo
Jurkat = test: Induction of p-SLP76 at Ser376 protein degradation in human Jurkat cells incubated for 24 hrs by Western blotting analysis relative to control; assay type: cell-based
[23] = Clearance in mouse relative to hepatic blood flow; details: in vivo
[24] = Apparent permeability across basolateral to apical side in human Caco-2 cells at 10 uM incubated for 2 hrs by LC-MS/MS analysis; assay type: ADME, cell-based
in vivo [25] = details: Sprague-Dawley, rat, po, 1 mg/kg
[26] = biological target: T1, Protein cereblon/Mitogen-activated protein kinase kinase kinase kinase 1; test: PROTAC activity at CRBN/HPK1 in human Jurkat cells assessed as HPK1 degradation measured after 24 hrs by Western blotting analysis; assay type: cell-based; details: dose 1-2000 nM
[27] = Drug metabolism in monkey hepatocytes assessed as phase 2 metabolites formation at 10 uM incubated for 120 mins by UHPLC-UV/MS/MS method; assay type: ADME, cell-based, Macaca mulatta, Hepatocyte; details: rhesus monkey, 2 h
[28] = Volume of distribution at steady state in C57BL/6J mouse at 2 mg/kg, iv measured upto 24 hrs by LC-MS analysis; assay type: ADME, organism-based; details: in vivo, read-out: Vdss
MC-38 [29] = test: Antitumor activity against mouse MC38 cells implanted in C57BL/6J mouse assessed as tumor growth inhibition at 1 mg/kg, po BID measured after 4 weeks; assay type: functional; details: MC-38, 672 h, read-out: TGI
[30] = Induction of INFgamma secretion in human T-cells incubated for 48 hrs by ELISA; assay type: functional, cell-based; details: T-cell
[31] = Clearance in mouse at 2 mg/kg, iv measured upto 24 hrs by LC-MS analysis; assay type: ADME, organism-based; details: in vivo
in vivo [32] = details: male, Sprague-Dawley, rat, po, 100 mg/kg
[33] = Tmax in male Sprague-Dawley rat at 2 mg/kg/day, po measured at day 14; assay type: ADME, organism-based; details: in vivo, time 14 day
in vitro [34] = details: mouse, liver microsomes
[35] = Clearance in Sprague-Dawley rat at 2 mg/kg, iv measured upto 24 hrs by LC-MS analysis; details: in vivo
[36] = Volume of distribution at steady state in Beagle dog at 1 mg/kg, iv measured upto 24 hrs by LC-MS analysis; assay type: ADME, organism-based, Canis lupus familiaris; details: in vivo
MC-38 [37] = test: Synergistic antitumor activity against mouse MC38 cells implanted in C57BL/6J mouse assessed as reduction in tumor volume at 100 mg/kg, po QD administered for 3 to 4 weeks in presence of 5 mg/kg anti-PD1 and measured twice a week (reference value: 1549.22 +/- 217.92 mm3); assay type: functional; details: time 3-4 weeks
MC-38 [38] = test: Antitumor activity against mouse MC38 cells implanted in C57BL/6J mouse assessed as tumor weight inhibition rate at 0.5 mg/kg, po BID measured after 4 weeks; assay type: functional; design: scale not given: the % may be the effect or the level left
[39] = Tmax in male Sprague-Dawley rat at 30 mg/kg/day, po measured at day 14; assay type: ADME, organism-based; details: in vivo, time 14 day
in vitro [40] = details: rat, hepatocytes
[41] = biological target: T1, Protein cereblon/Mitogen-activated protein kinase kinase kinase kinase 1; test: PROTAC activity at CRBN/HPK1 in human Jurkat cells assessed as HPK1 degradation at 1 uM by Western blotting analysis; assay type: cell-based; details: time 4-72 hrs
[42] = biological target: T1, Protein cereblon/Mitogen-activated protein kinase kinase kinase kinase 1; test: PROTAC activity at CRBN/HPK1 in human Jurkat cells assessed as HPK1 degradation at 1 uM measured after 24 hrs by Western blotting analysis; assay type: cell-based

T1 sequence (Q92918 whole entry, looked up): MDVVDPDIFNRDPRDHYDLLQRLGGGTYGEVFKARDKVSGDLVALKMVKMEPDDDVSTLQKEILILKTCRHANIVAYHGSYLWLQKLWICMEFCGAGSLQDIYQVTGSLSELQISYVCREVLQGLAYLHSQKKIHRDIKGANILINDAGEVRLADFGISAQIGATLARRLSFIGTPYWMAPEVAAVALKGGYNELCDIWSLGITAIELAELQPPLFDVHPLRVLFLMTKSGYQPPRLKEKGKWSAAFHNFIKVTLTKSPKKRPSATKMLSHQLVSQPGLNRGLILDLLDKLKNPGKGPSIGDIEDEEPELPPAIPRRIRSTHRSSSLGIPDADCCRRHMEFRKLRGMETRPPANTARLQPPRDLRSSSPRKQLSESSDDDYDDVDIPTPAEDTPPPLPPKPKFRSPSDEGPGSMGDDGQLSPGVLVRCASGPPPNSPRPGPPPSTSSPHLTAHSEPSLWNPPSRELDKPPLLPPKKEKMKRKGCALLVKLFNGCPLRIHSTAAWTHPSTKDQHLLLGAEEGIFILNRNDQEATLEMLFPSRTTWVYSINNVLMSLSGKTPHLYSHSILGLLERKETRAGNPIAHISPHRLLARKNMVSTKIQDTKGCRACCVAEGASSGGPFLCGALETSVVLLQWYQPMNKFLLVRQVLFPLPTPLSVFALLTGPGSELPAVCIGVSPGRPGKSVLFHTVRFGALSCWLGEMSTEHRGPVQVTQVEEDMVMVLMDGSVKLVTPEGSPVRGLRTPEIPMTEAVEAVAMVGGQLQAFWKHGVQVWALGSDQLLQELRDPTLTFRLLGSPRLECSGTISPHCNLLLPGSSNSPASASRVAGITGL
T1 sequence (Q96SW2 whole entry, looked up): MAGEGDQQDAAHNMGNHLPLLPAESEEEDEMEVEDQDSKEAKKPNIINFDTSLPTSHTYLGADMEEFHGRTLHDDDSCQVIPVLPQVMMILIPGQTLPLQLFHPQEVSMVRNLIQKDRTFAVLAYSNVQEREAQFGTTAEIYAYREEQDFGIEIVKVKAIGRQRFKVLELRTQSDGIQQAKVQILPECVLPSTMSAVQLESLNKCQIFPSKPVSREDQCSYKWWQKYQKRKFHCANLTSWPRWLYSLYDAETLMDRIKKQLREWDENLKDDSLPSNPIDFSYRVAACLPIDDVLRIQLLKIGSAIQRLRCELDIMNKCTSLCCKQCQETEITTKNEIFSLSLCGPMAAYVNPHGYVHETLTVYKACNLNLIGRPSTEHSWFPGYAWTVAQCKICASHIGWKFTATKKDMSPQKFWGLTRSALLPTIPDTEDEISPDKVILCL

With O=C1CCN(c2cc(C(=O)N3CCC(CC4CCN(c5ccc(-c6cnc7[nH]cc(-c8cnn(CC(F)(F)F)c8)c7n6)cn5)CC4)CC3)ccc2Cl)C(=O)N1 the AUC at 336 h (in vivo [1]) was 830 ng·h/mL, the Activity [2] was 55.6% and the Drug uptake [3] was “Active”. It also gave a Vz [4] of 0.121 L/kg, a half-life at 1.5 h, 1 µM (in vitro [5]) of 3.47 h and an inhibition in vivo at 0.5 mg/kg (MC-38 [6]) of 91%. The Emax at 0.5 mg/kg [7] was 77.6%, the Activity (MC-38 [8]) was 1277.79 mm3 and the Drug metabolism [9] was “metabolite_detected”. It also gave a CLH [10] of 2.97 µL/min/mg, a fraction unbound at 6 h, 10 µM [11] of 0.0025 and a Tmax [12] of 8.67 h. The Activity (MC-38 [13]) was 21.84%, the AUC(0-inf) [14] was 8220 ng·h/mL and the fraction unbound at 6 h, 10 µM [15] was 0.0002. The Activity (MC-38 [16]) was 0.47 g, the Vd [17] was 0.834 L/kg and the Tmax [18] was 7.5 h. It also gave a bioavailability at 24 h (in vivo [19]) of 43.7%, a microsomal CLint at 1 µM [20] of 20.3 µL/min/mg and a Cmax at 336 h (in vivo [21]) of 140 ng/mL. The half-life at 24 h [22] was 4.86 h, the Emax (Jurkat) was 82.1% and the clearance [23] was 27 mL/min/kg. For the same molecule, the Papp B→A at 2 h, 10 µM [24] was 0.112 ×10⁻⁶ cm/s, the Cmax at 24 h (in vivo [25]) was 98.7 ng/mL and the Activity [26] was “Dose-dependent-effect”. For the same molecule, the Drug metabolism [27] was “metabolite_detected”, the Vd [28] was 0.659 L/kg and the inhibition in vivo at 1 mg/kg (MC-38 [29]) was 17.5%. The EC50 [30] was 32.6 nM, the clearance [31] was 0.598 mL/min/kg and the Cmax at 24 h (in vivo [32]) was 8620 ng/mL. The Tmax [33] was 10 h, the half-life at 0.75 h, 1 µM (in vitro [34]) was 1.73 h and the clearance at 24 h [35] was 4.17 mL/min/kg. For the same molecule, the Vdss [36] was 0.386 L/kg, the Activity (MC-38 [37]) was 139.92 mm3 and the Activity (MC-38 [38]) was 42.22%. For the same molecule, the Tmax [39] was 8 h, the half-life at 1.5 h, 1 µM (in vitro [40]) was 3.9 h and the Activity [41] was “Time-dependent-effect”. The Activity [42] was “Active”.
